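Tested at 5 concentrations; 48 h exposure; 96-well plates; endpoints linearly interpolated, else capped at highest concentration. Here, GI50 denotes the concentration required for 50% inhibition of growth. Definition used: TGI = concentration required for complete inhibition of growth.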
Columns and labels:
Assay in all cases: NCI anticancer screen, dose series, 48 h
[1] = system: HS 578T breast
[2] = system: DU-145 prostate
[3] = system: HT29 colon
[4] = system: OVCAR-4 ovarian
[5] = system: HL-60(TB) leukemia
[6] = system: CAKI-1 renal
[7] = system: ACHN renal
[8] = system: MDA-MB-435
[9] = system: SN12C renal
[10] = system: SF-539 CNS

| Structure (SMILES) | GI50 [1] [µM] | TGI [1] [µM] | GI50 [2] [µM] | TGI [2] [µM] | GI50 [3] [µM] | TGI [3] [µM] | GI50 [4] [µM] | TGI [4] [µM] | GI50 [5] [µM] | TGI [5] [µM] | GI50 [6] [µM] | TGI [6] [µM] | GI50 [7] [µM] | TGI [7] [µM] | GI50 [8] [µM] | TGI [8] [µM] | GI50 [9] [µM] | TGI [9] [µM] | GI50 [10] [µM] | TGI [10] [µM] |
| --- | --- | --- | --- | --- | --- | --- | --- | --- | --- | --- | --- | --- | --- | --- | --- | --- | --- | --- | --- | --- |
| O=C(CCc1nnc2sc(-c3ccc(Cl)cc3Cl)nn12)c1nc2ncccc2[nH]1 | 2.71 | 8.02 | 1.92 | 3.63 | 2.93 | 11.8 | 1.92 | 4.26 | 2.91 | 12.8 | 1.42 | 3.15 | 1.54 | 2.91 | 1.75 | 3.68 | 1.99 | 4.92 | 1.96 | 3.98 |
| NC1(C(=O)OCc2ccccc2)CCCC1 |  | 79.7 |  | 37.5 |  | > 100 |  | 37.3 |  | 54.5 |  | 47.5 |  | 34.1 |  | 41.2 |  | 54 |  | 31.7 |
| O=C(/C=C/c1ccc(Cl)cc1)c1ccc(Nc2ccnc3cc(Cl)ccc23)cc1 | 36.3 | > 100 | 27.6 | > 100 | 1.07 | > 100 | > 100 | > 100 | 9.16 | 59.6 |  | > 100 | > 100 | > 100 | 9.3 | > 100 | > 100 | > 100 | > 63.3 | > 100 |
| COc1c(Cl)c(=O)oc2ccc(Cl)cc12 |  | > 100 |  | > 100 |  | > 100 |  | > 100 |  | > 100 |  | > 100 |  | > 100 |  | > 100 |  | > 100 |  | > 100 |
| Cn1cnc([N+](=O)[O-])c1S(=O)(=O)Oc1cccc2ccccc12 | 26.5 | > 100 | 3.14 | 8.03 | 1.8 | 3.99 | 2.03 | 5.96 | 5.34 | 31.4 | 1.76 | 4.07 | 1.97 | 4.21 | 2.31 | 7.21 | 5.71 | 20.5 | 2.23 | 5.59 |
| CSc1nc(NC2OCC(OC(C)=O)C(OC(C)=O)C2OC(C)=O)c(N=CC=Nc2c(NC3OCC(OC(C)=O)C(OC(C)=O)C3OC(C)=O)nc(SC)[nH]c2=O)c(=O)[nH]1 (centres undefined) |  | > 100 |  | > 100 |  | > 100 |  | > 100 |  | > 100 |  | > 100 |  | > 88.7 |  | > 100 |  | > 100 |  | > 86.4 |
| CCOC(=O)c1cc2nc3ccccc3c(=O)n2c2ccccc12 |  | > 10 |  | > 10 |  | > 10 |  | > 10 |  | > 10 |  | > 10 |  | > 10 |  | > 10 |  | > 10 |  | > 10 |

Source: PubChem BioAssay (NCI)
